Source: patent US20240383908A1, “SYNTHESIS AND APPLICATION OF PHOSPHATASE DEGRADER” (HINOVA PHARMACEUTICALS INC., priority 2021, published 2024)

Assays:
Type in all cases: cell-based
SHP2 protein [1] = target: T1, SHP2 protein (Homo sapiens, UniProt Q06124); assay: Degradation activity on SHP2 protein in MV-411 cells (Western blot, DC50); set-up: endogenous in cells; details: MV411 cells, 24 hours, read-out: Degradation activity for differenct cell lines MV411 (DC50)
T1 sequence (Q06124 1-593): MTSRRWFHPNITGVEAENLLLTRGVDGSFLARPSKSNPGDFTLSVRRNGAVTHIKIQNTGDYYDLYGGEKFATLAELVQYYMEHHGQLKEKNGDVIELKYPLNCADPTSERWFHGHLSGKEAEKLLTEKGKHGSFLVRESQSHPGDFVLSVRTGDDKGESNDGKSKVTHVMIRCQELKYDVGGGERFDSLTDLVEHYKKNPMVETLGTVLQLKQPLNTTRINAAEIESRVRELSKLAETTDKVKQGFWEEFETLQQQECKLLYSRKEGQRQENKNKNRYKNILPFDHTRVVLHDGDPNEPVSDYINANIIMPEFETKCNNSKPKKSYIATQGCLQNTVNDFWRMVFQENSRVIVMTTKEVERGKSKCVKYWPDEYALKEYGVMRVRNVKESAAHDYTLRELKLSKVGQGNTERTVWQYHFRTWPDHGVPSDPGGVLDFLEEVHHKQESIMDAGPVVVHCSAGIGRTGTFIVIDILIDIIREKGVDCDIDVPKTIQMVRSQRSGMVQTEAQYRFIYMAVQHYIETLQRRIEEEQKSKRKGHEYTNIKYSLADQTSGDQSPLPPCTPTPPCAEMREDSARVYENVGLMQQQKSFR
Method in brief: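 MV-411 cells (1×10^6 cells/well, IMDM + 10% FBS) were treated 24 h with compound at 0.1-100 nM final, 0.1% DMSO, duplicates. SHP2 measured by Western blot against GAPDH, band density normalised to DMSO control; DC50 from dose-response fit.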

SHP2 protein [2] = target: T1, SHP2 protein; assay: Degradation activity on SHP2 protein in MIA Paca-2 cells (Western blot, DC50); set-up: endogenous in cells; host or cells: MIA Paca-2 cells; details: read-out: Degradation activity for differenct cell lines MIA Paca-2 (DC50)
Method in brief: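 Cells were treated 24 h at 37 °C with compound (0.1–100 nM final, 0.1% DMSO). SHP2 was measured by Western blot with GAPDH as loading control, densitometry normalized to DMSO (100%). DC50, the concentration giving 50% degradation, came from a dose-response fit.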

SHP2 protein [3] = target: T1, SHP2 protein; assay: Degradation activity on SHP2 protein in NCI-H358 cells (Western blot, DC50); set-up: endogenous in cells; details: read-out: Degradation activity for differenct cell lines NCI-H358 (DC50)
Description: (1) MV-411 cells were cultured in the cell culture medium, and then well-growing cells were selected and inoculated in a 12-well plate, with 1 mL/well and 1×10^6 cells/well. The plate was incubated overnight in a 5% CO2 cell incubator at 37° C.
(2) 10 mM storage solution of each drug was prepared using dimethylsulfoxide (DMSO). The stock solution was diluted gradually with DMSO before use, and then 1 μL of the compound solution was added to the cell culture well (to ensure that the DMSO concentration in the culture system was […]), so that the final drug concentration is 100 nM, 10 nM, 3 nM, 1 nM, 0.3 nM, and 0.1 nM. Two wells were set for each concentration. The plate was gently shaken and mixed. Additionally, negative control wells (containing an equal amount of DMSO) and positive control wells were included.
(3) After 24 hours of cultivation, the cells were lysed using RIPA cell lysate, and the proteins were extracted. The protein concentration was measured using a BCA assay kit. 5× concentrated protein buffer was loaded, heated at 100° C. for 5 min, and then the sample was stored at −20° C.
(4) For each well, 30 μg of protein was loaded to polyacrylamide gel for electrophoresis.
(5) The protein was transferred from polyacrylamide gel to PVDF membrane, and sealed at room temperature with 5% skimmed milk for 1 h, which was then incubated with the primary antibodies (Anti-SHP2 rabbit mAb and Anti-GAPDH rabbit mAb) at 4° C. overnight. The membrane was washed three times with TBST solution, 10 minutes for each time. After that, the membrane was incubated with the secondary antibodies (horseradish peroxidase labeled goat anti-rabbit IgG) at room temperature for 2 h, and then washed three times with TBST solution, 10 minutes for each time, followed by exposure.
(6) The images were analyzed with Image J grayscale, and the degradation ratio of protein bands in the test group was calculated, based on the negative control group (DMSO) (100%).
(7) Using the Dose-response-inhibition equation in the data processing software GraphPad Prism 8, the DC50 value was obtained (which represents the drug concentration corresponding to 50% degradation of the target protein).
Using similar methods and different cell lines, the degradation activity of the compound according to the present invention on SHP2 protein of different cell lines was tested under suitable culture conditions.

DC50 (SHP2 protein [1]) | DC50 (SHP2 protein [2]) | DC50 (SHP2 protein [3]) | SMILES
< 100 nM | 100 to 1000 nM |  | CC1(N)CCN(c2cnc(Sc3cccc(NC(=O)CCCCCCCCCCNc4ccc(C(=O)NCc5ccc6c(c5)CN(C5CCC(=O)NC5=O)C6=O)nn4)c3)cn2)CC1 (stereo not drawn) [Compound 185]
 |  | < 100 nM | CC1(N)CCN(c2cnc(Sc3cccc(NC(=O)CCCCCCCCN4C5CCC4CC(c4ccc(C(=O)NCc6ccc7c(c6)CN(C6CCC(=O)NC6=O)C7=O)nn4)C5)c3)cn2)CC1 (single isomer, unassigned) [Compound 234]
< 100 nM | < 100 nM |  | COCC1(N)CCN(c2cnc(Sc3cccc(NC(=O)CCCCCCN4CC5(CCN(c6ccc(C(=O)NCc7ccc8c(c7)CN(C7CCC(=O)NC7=O)C8=O)nn6)C5)C4)c3)cn2)CC1 (stereo not drawn) [Compound 199]
< 100 nM | > 1000 nM |  | CC1(N)CCN(c2cnc(Sc3cccc(NC(=O)CCCCCOc4ccc(C5CCC(C(=O)NCc6ccc7c(c6)CN(C6CCC(=O)NC6=O)C7=O)CC5)cc4)c3)cn2)CC1 (stereo not drawn) [Compound 191]
< 100 nM | < 100 nM |  | CC1(N)CCN(c2cnc(Sc3cccc(NC(=O)CCCCCCCO[C@@H]4CN(c5ccc(C(=O)NCc6ccc7c(c6)CN(C6CCC(=O)NC6=O)C7=O)nn5)CC4(F)F)c3)cn2)CC1 (stereo partly drawn) [Compound 178]
 |  | < 100 nM | CC1(N)CCN(c2cnc(Sc3cccc(NC(=O)CCCCCCCCN4C5CCC4CC(c4ccc(C(=O)NCc6ccc7c(c6)CN(C6CCC(=O)NC6=O)C7=O)nn4)C5)c3)cn2)CC1 (single isomer, unassigned) [Compound 233]
< 100 nM | > 1000 nM |  | CC1(N)CCN(c2cnc(Sc3cccc(NC(=O)CCCCCCOC4CC5CN(c6ccc(C(=O)NCc7ccc8c(c7)CN(C7CCC(=O)NC7=O)C8=O)nn6)CC5C4)c3)cn2)CC1 (stereo not drawn) [Compound 183]
< 100 nM | < 100 nM |  | CC1(N)CCN(c2cnc(Sc3cccc(NC(=O)CCCCCOC4CC5(CCN(c6ccc(C(=O)NCc7ccc8c(c7)CN(C7CCC(=O)NC7=O)C8=O)nn6)C5)C4)c3)cn2)CC1 (stereo not drawn) [Compound 166]
< 100 nM | > 1000 nM |  | Cc1cc(N2CCC3(CN(CCCCCCC(=O)Nc4cccc(Sc5cnc(N6CCC(N)(CO)CC6)cn5)c4)C3)C2)cnc1C(=O)NCc1ccc2c(c1)CN(C1CCC(=O)NC1=O)C2=O (stereo not drawn) [Compound 208]
< 100 nM | > 1000 nM |  | CC1(N)CCN(c2cnc(Sc3cccc(NC(=O)CCCCCOc4ccc(C5CCC(C(=O)NCc6ccc7c(c6)CN(C6CCC(=O)NC6=O)C7=O)CC5)cc4)c3)cn2)CC1 (stereo not drawn) [Compound 192]
< 100 nM | > 1000 nM |  | CC1(N)CCN(c2cnc(Sc3cccc(NC(=O)CCCCCC=C4CC5(CCN(c6ccc(C(=O)NCc7ccc8c(c7)CN(C7CCC(=O)NC7=O)C8=O)nn6)CC5)C4)c3)cn2)CC1 (stereo not drawn) [Compound 209]
< 100 nM | < 100 nM |  | COc1nc(N2CCC3(CN(CCCCCCC(=O)Nc4cccc(Sc5cnc(N6CCC(C)(N)CC6)cn5)c4)C3)C2)ccc1C(=O)NCc1ccc2c(c1)CN(C1CCC(=O)NC1=O)C2=O (stereo not drawn) [Compound 211]
100 to 1000 nM | > 1000 nM |  | NC1(CO)CCN(c2cnc(Sc3cccc(NC(=O)CCCCCCN4CC5(CCN(c6ccc(C(=O)NCc7ccc8c(c7)CN(C7CCC(=O)NC7=O)C8=O)nc6)C5)C4)c3)cn2)CC1 (stereo not drawn) [Compound 190]

The next lines start with the compound.

SMILES | DC50 (SHP2 protein [1]) | DC50 (SHP2 protein [2]) | DC50 (SHP2 protein [3])
CC1(N)CCN(c2cnc(Sc3cccc(NC(=O)CCCCCCCN4CC5(CCN(c6ccc(COc7cccc8c7CN(C7CCC(=O)NC7=O)C8=O)nn6)C5)C4)c3)cn2)CC1 (stereo not drawn) [Compound 107] | < 100 nM | > 1000 nM | 
CC1(N)CCN(c2cnc(Sc3cccc(NC(=O)CCCCCCCOC4CCN(c5ccc(C(=O)NCc6ccc7c(c6)CN(C6CCC(=O)NC6=O)C7=O)nn5)CC4F)c3)cn2)CC1 (stereo not drawn) [Compound 147] |  |  | < 100 nM
O=C1CCC(N2Cc3cc(CNC(=O)c4ccc(N5CCC6(CN(CCCCCCC(=O)Nc7cccc(Sc8cnc(N9CCC%10(CCNC%10)CC9)cn8)c7)C6)C5)nn4)ccc3C2=O)C(=O)N1 (stereo not drawn) [Compound 112] | < 100 nM | > 1000 nM | 
CC1(N)CCN(c2cnc(Sc3ccc(NC(=O)CCCCCCCCOC4CN(c5ncc(C(=O)NCc6ccc7c(c6)CN(C6CCC(=O)NC6=O)C7=O)cn5)C4)cc3)cn2)CC1 (stereo not drawn) [Compound 74] | < 100 nM | 100 to 1000 nM | 
NC1CCN(c2cnc(Sc3cccc(NC(=O)CCCCN4CC5(CCN(c6ccc(C(=O)NCc7ccc8c(c7)CN(C7CCC(=O)NC7=O)C8=O)nn6)C5)C4)c3)cn2)CC1F (stereo not drawn) [Compound 140] | > 1000 nM | > 1000 nM | 
Cc1ncsc1-c1ccc([C@H](C)NC(=O)[C@@H]2C[C@@H](O)CN2C(=O)[C@@H](NC(=O)c2ccc(N3CCC4(CN(CCCCCCCC(=O)Nc5cccc(Sc6cnc(N7CCC(C)(N)CC7)cn6)c5)C4)C3)nn2)C(C)(C)C)cc1 [Compound 105] | < 100 nM | 100 to 1000 nM | 
CC1(N)CCN(c2cnc(Sc3cccc(NC(=O)CCCCCCN4CC5(CCN(c6ccc(C#Cc7ccc8c(c7)CN(C7CCC(=O)NC7=O)C8=O)nn6)C5)C4)c3)cn2)CC1 (stereo not drawn) [Compound 157] | < 100 nM | > 1000 nM | 
CC1(N)CCN(c2cnc(Sc3cccc(NC(=O)CCCCCCN4CC5(CCN(C6CC(C(=O)NCc7ccc8c(c7)CN(C7CCC(=O)NC7=O)C8=O)C6)C5)C4)c3)cn2)CC1 (stereo not drawn) [Compound 160] | 100 to 1000 nM | > 1000 nM | 
Cc1ncsc1-c1ccc([C@H](C)NC(=O)[C@@H]2C[C@@H](O)CN2C(=O)[C@@H](NC(=O)c2ccc(N3CCC4(CN(CCC(=O)Nc5cccc(Sc6cnc(N7CCC(C)(N)CC7)cn6)c5)C4)C3)nn2)C(C)(C)C)cc1 [Compound 98] | < 100 nM | 100 to 1000 nM | 
CC1(N)CCN(c2cnc(Sc3cccc(NC(=O)CCCCCCCCN4CCN(c5ncc(C(=O)NCc6ccc7c(c6)CN(C6CCC(=O)NC6=O)C7=O)cn5)CC4)c3)cn2)CC1 (stereo not drawn) [Compound 48, 2-(4-(9-((3-((5-(4-amino-4-methylpyridin-1-yl)pyrazin-2-yl)thio)phenyl)amino)-9-oxononyl)piperazin-1-yl)-N-((2-(2,6-dioxopiperidin-3-yl)-1-oxoisoindol-5-yl)methyl)pyrimidine-5-formamide] | < 100 nM | < 100 nM | 
Cc1ncsc1-c1ccc([C@H](C)NC(=O)[C@@H]2C[C@@H](O)CN2C(=O)[C@@H](NC(=O)c2cnc(N3CCC4(CN(CCCCCCC(=O)Nc5cccc(Sc6cnc(N7CCC(C)(N)CC7)cn6)c5)C4)C3)nc2)C(C)(C)C)cc1 [Compound 90] | < 100 nM | < 100 nM | 
CC1(N)CCN(c2cnc(Sc3cccc(NC(=O)/C=C/C(=O)N4CCN(CCCCCCCCC(=O)NCc5ccc6c(c5)CN(C5CCC(=O)NC5=O)C6=O)CC4)c3)cn2)CC1 (stereo not drawn) [Compound 55] | < 100 nM | > 1000 nM | 
CC1(N)CCN(c2cnc(Sc3cccc(NC(=O)CCCCCCN4CC5(CCN(c6ncc(C(=O)NCc7ccc8c(c7)CN(C7CCC(=O)NC7=O)C8=O)cn6)C5)C4)c3)cn2)CC1 (stereo not drawn) [Compound 91] | < 100 nM | 100 to 1000 nM | 
CC1(N)CCN(c2cnc(Sc3cccc(NC(=O)CCCCCCCO[C@@H]4CCN(c5ncc(C(=O)NCc6ccc7c(c6)CN(C6CCC(=O)NC6=O)C7=O)cn5)C4)c3)cn2)CC1 (stereo partly drawn) [Compound 104] | < 100 nM | > 1000 nM | 
